From patent publication US9980943B2, “Methods of treating muscular dystrophy” (BOARD OF REGENTS OF THE NEVADA SYSTEM OF HIGHER EDUCATION, …, priority 2013, dated 2018)
Where two headings read alike, the source gives them in different places.

Tested on: α7 integrin (LacZ reporter in α7LacZ+/− myoblasts)
Experiment: qHTS of the LOPAC library and MLSMR (online screen, α7LacZ+/− myoblasts)
Details: for activation at 0.307 µM / activation at 1.53 µM / activation at 7.66 µM / activation at 38.3 µM / Emax / EC50: Mus musculus, Myoblast; for activation at 0.307 µM: read-out: Activity at 0.307 uM [%] **; for activation at 1.53 µM: read-out: Activity at 1.530 uM [%] **; for activation at 7.66 µM: read-out: Activity at 7.660 uM [%] **; for activation at 38.3 µM: read-out: Activity at 38.30uM [%] **; for EC50: read-out: Fit LogAC50 (converted)
[1] = 48 h, read-out: Fit Infinite Activity [%]

Experimental: A total of 250 α7LacZ^+/− myoblasts at passage 13 were dispensed using a multidrop (Thermo) into black low base tissue culture treated microclear aurora plates in 6 μl media containing DMEM without phenol, 5% FBS, 1× GluMax and 1× Penicillin/Streptomycin. […] Compounds were then dispensed using a Kalypsys pintool to deliver 23 nl/well compounds in DMSO (diluted into 6 μl resulting in a 1:260 dilution of compound). […] After incubation with compound, 5 μl of the media was aspirated using the Kalypsys washer/dispenser and 3 μl of the Mammalian Protein Extraction Reagent (MPER) lysis buffer (Thermo Fisher) was added. […] The plates were then incubated for 10 minutes at room temperature.
The assay was adapted for a high-throughput screen with the fully automated Kalypsys robotic system using 1536 well plates at NCGC.

Row | SMILES | activation at 0.307 µM (48 h) | activation at 1.53 µM (48 h) | activation at 7.66 µM (48 h) | activation at 38.3 µM (48 h) | Emax [1] | EC50 | Score | Emax (read-out: Max Response [%])
1 | CC(OC(=O)c1cc(-c2cccnc2)nc2ccccc12)C(=O)Nc1ccc2ccccc2c1 (stereo not drawn) [Compound 1] | 0% | 143% | 198% | 191% | 195% | 1120 nM |  | 
2 | Cc1cccc(OCc2nc(C#N)c(N3CCCC3)o2)c1 [Compound 2] | 9.52% | 57% | 175% | 223% | 231% | 3550 nM |  | 
3 | COc1ccccc1-c1coc2c3c(ccc2c1=O)OC1CCCCN1C3 (stereo not drawn) [Compound 3] | -34.2% | 9.57% | 154% | 159% | 158% | 2240 nM |  | 
4 | Cc1ccccc1C(=O)Nc1scc(-c2ccc(Br)cc2)c1C(=O)O [Compound 4] | 9.85% | 38.3% | 119% | 137% | 137% | 2820 nM |  | 
5 | COc1cc2c(cc1NC(=O)Cc1ccc(C)cc1)oc1ccccc12 [Compound 5] | -1.8% | 58.4% | 87.2% | 687% | 87.4% | 1120 nM |  | 
6 | COCc1c(C(=O)OCc2nc(=O)c3sccc3[nH]2)oc2ccccc12 [Compound 6] | -39.8% | 19.2% | 60.6% | 68.1% | 69.6% | 1120 nM |  | 
7 | O=C(NC1CCCC1)c1ccc(CS(=O)(=O)Cc2ccccc2F)o1 [Compound 7] | 13.4% | 25.3% | 80.6% | 105% | 107% | 4470 nM |  | 
8 | CN(C)S(=O)(=O)c1cccc(C(=O)Nc2ccc3c(c2)CCC3)c1 [Compound 8] | -15.4% | -10.6% | 96.4% | 94.3% | 96% | 2820 nM |  | 
9 | Cc1c(C(=O)O)cccc1-n1c(C)cc(/C=N/Nc2ccc([N+](=O)[O-])cn2)c1C [Compound 9] | -24.5% | 6.29% | 68.1% | 88.7% | 92.2% | 2820 nM | 85 | 88.7%
10 | Cc1ccc(NP(=O)(Nc2ccc(C)cc2)Nc2ccc(C)cc2)cc1 [Compound 10] | 0% | 11.4% | 94.1% | 102% | 102% | 3160 nM |  | 
11 | Cc1cc(OCC(=O)NC(C)C)ccc1Cl [Compound 11] | 0% | 7.6% | 83.9% | 102% | 101% | 3980 nM |  | 
12 | COC(=O)C1=C(C)N=C(C)/C(=C(/O)OC)C1c1ccccc1OCc1c(C)no[n+]1[O-] (stereo not drawn) [Compound 12] | 12.3% | 36.5% | 84.6% | 100% | 102% | 2820 nM |  | 
13 | COc1ccc(NC(=O)c2cccc(N3C(=O)c4ccc(C(=O)Nc5ccc(OC)c(O)c5)cc4C3=O)c2)cc1O [Compound 13] | -24.8% | -27.4% | 80.7% | 95.6% | 94.7% | 4470 nM |  | 
14 | CCOc1ccc(S(=O)(=O)NCCC(=O)NCC(c2cccs2)N2CCOCC2)cc1 (stereo not drawn) [Compound 14] | -21.6% | 3.54% | 59.1% | 61.7% | 62.8% | 2240 nM |  | 
15 | CCOc1ccccc1NC(=O)c1cccc2c1C(=O)N(C1CCCCC1)C2 [Compound 15] | -13.7% | 4.71% | 58% | 73.6% | 75.3% | 3160 nM |  | 
16 | NC(=O)c1nsc(C(=O)N(c2ccccc2)C(C(=O)NCc2ccc(F)cc2)c2ccc(O)cc2)c1N (stereo not drawn) [Compound 16] | -30.2% | 5.64% | 58.2% | 75.2% | 77.5% | 2240 nM |  | 
17 | CCc1ccc(N(C(=O)c2snc(C(N)=O)c2N)C(C(=O)NC2CCCC2)c2ccco2)cc1 (stereo not drawn) [Compound 17] | -18.3% | 9.37% | 52.7% | 67.6% | 71.4% | 2510 nM |  | 
18 | COC(=O)C(=O)C/C(=N/Nc1ncnc2ccccc12)c1ccc(Cl)cc1 [Compound 18] | 7.75% | 30.6% | 358% |  |  | 10000 nM |  | 
19 | Cc1cc(NC(=O)c2ccc(Cl)cc2Cl)no1 [Compound 19] | -20.1% | 15% | 43.9% | 52.1% | 52.7% | 1410 nM |  | 
20 | CCOC(=O)Cc1csc(NC(=S)NC(=O)c2cc(OC)c(OC)c(OC)c2)n1 [Compound 20] | -18.1% | -4.46% | 69.3% | 82.9% | 83.9% | 3550 nM |  | 
21 | CC(C)CC1NC(=O)N(CC(=O)N2c3ccccc3NC(=O)C2(C)C)C1=O (stereo not drawn) [Compound 21] | 2.86% | 0% | 75.6% | 93.3% | 93.5% | 5620 nM |  | 
22 | COCCSc1ccccc1C(=O)Nc1cc(C)cc(C)c1 [Compound 22] | 0% | 0% | 78.3% | 82.9% | 83.1% | 4470 nM |  | 
23 | O=c1oc2c(-c3cccc(F)c3)cc(O)cc2s1 [Compound 23] | 12.6% | 18.8% | 87.3% | 98.9% | 98.5% | 3980 nM |  | 
24 | Cc1ccc(C2Nc3cccc4cccc(c34)N2)s1 [Compound 24] | 5.89% | 19.6% | 73.1% | 81.3% | 82.7% | 3160 nM |  | 
25 | COc1cc(=O)n(C)c2ccccc12 [Compound 25] | -16.5% | 11.1% | 54.5% | 63% | 64.1% | 2240 nM |  | 
26 | CCOC(=O)c1sc(=N)n(-c2ccc(OC)cc2)c1C [Compound 26] | -25.4% | 4.59% | 41.9% | 56.1% | 59.6% | 2000 nM |  | 
27 | Cc1ccc(OCC(=O)N2CCN(S(=O)(=O)c3ccc4c(c3)OCCO4)CC2)c(C)c1 [Compound 27] | -26.2% | 3.31% | 51.6% | 53.8% | 55% | 2000 nM |  | 
28 | CC(NC(=O)c1cn(C)c2ccc(S(=O)(=O)N3CCCC3)cc2c1=O)c1ccccc1 (stereo not drawn) [Compound 28] | -36% | -20.6% | 48.9% | 54.7% | 55.3% | 2820 nM |  | 
